3 molecules from paper PMC12584836, “Rubus caesius leaves and stems in antiaging skin care products: antityrosinase, anticollagenase, antimicrobial activity, and transdermal distribution of main phenolic acids” (Pharmaceutical Biology, 2025) can be followed below.

A short description of the data set: Skin permeation from hydrogels in Franz diffusion cells. It counts as in vitro ADME. Particulars: porcine skin. How it is done:
Permeation experiments were conducted using Franz diffusion cells (Phoenix DB-6, ABL&E-JASCO, Wien, Austria), with a donor chamber area of 1 cm^2 and 10 mL acceptor chamber filled with phosphate-buffered saline (PBS, pH 7.4). The system was maintained at 37.0 ± 0.5 °C, and the acceptor solutions were continuously stirred.
Skin samples were wrapped in aluminum foil, frozen at −20 °C for no longer than three months. […] Skin impedance was measured by immersing the probe tips in the donor and acceptor chambers filled with PBS.
One gram of each hydrogel was applied to the donor chamber. All chambers were sealed with plastic stoppers to minimize evaporation. […] Phenolic acid concentrations were determined by HPLC.
J-shaped profiles and the following equations were used: (1) A=JSS(t−LT) where A is the cumulative amount permeated (μg·cm^−2) of tested phenolic acids permeating into the receptor compartment; JSS is the steady-state flux (μg·cm^−2·h^−1); t is the time (h), and LT is the lag time (h).
The steady-state flux was estimated from the slope of the linear portion of the plot of cumulative mass in the acceptor phase over time. The lag time (LT) was determined from the x-intercept of the linear portion of the plot of cumulative mass in the acceptor phase over time and was used to calculate the […] (KP) as follows: (2) KP=JSS/C where C is the concentration in the donor phase.

The structures appear in SMILES notation. Marks after values point to notes of the source that are not given here.

Turning to `O=C(O)/C=C/c1ccc(O)c(O)c1` [Caffeic acid, caffeic acid], the “Phenolic acids concentration in the acceptor fluid (cumulative mass)” value (from here on “Phenolic acids concentration”) runs as follows: (from hydrogel HL-E, 3 h) 2.58 ± 0.20^a µg/cm^2; (from hydrogel HL-E, 5 h) 2.84 ± 0.07^a µg/cm^2; (from hydrogel HL-E, 8 h) 3.30 ± 0.13^a µg/cm^2; (from hydrogel HL-E, 24 h) 7.83 ± 0.83^a µg/cm^2; (from hydrogel HS-E, 24 h) “not permeating at all”. In addition, where the note is “from hydrogel HL-E”, the “D·10^4, diffusion coefficient” value is 3.41 ± 0.28 cm^2/h. Further, the “JSS, steady-state flux” value (from hydrogel HL-E) amounted to 0.84 ± 0.02 µg/cm^2·h. For the same molecule, the “LT, lag time” value (from hydrogel HL-E) came out at 1.22 ± 0.09 h. Besides, the “Q%24h, percentage of applied dose in acceptor phase after 24 h” value (“Q%24h, percentage of applied dose” for short) (from hydrogel HL-E) amounted to 0.68 ± 0.07%.
Consider `O=C(O)/C=C/c1ccc(O)cc1` [Coumaric acid, coumaric acid], for which the “Phenolic acids concentration” value runs as follows: (from hydrogel HL-E, 3 h) 4.97 ± 0.09^a µg/cm^2; (from hydrogel HL-E, 5 h) 7.04 ± 0.75^a µg/cm^2; (from hydrogel HL-E, 8 h) 8.95 ± 1.00^a µg/cm^2; (from hydrogel HL-E, 24 h) 12.45 ± 0.26^a µg/cm^2; (from hydrogel HS-E, 8 h) 5.10 ± 0.11^b µg/cm^2; (from hydrogel HS-E, 24 h) 5.93 ± 0.08^b µg/cm^2. Where the note is “from hydrogel HL-E”, the “D·10^4, diffusion coefficient” value came to 9.27 ± 0.73 cm^2/h. Also, the “JSS, steady-state flux” value (from hydrogel HL-E) turned out to be 1.35 ± 0.17 µg/cm^2·h. Further, the “Q%24h, percentage of applied dose” value runs as follows: (from hydrogel HL-E) 2.62 ± 0.05%; (from hydrogel HS-E) 5.37 ± 0.07%.
For the molecule `COc1cc(C(=O)O)ccc1O` [Vanillic acid, vanillic acid], the “Phenolic acids concentration” value reads like this: (from hydrogel HL-E, 3 h) 0.49 ± 0.25^a µg/cm^2; (from hydrogel HL-E, 5 h) 1.76 ± 0.82^a µg/cm^2; (from hydrogel HL-E, 8 h) 3.92 ± 1.06^a µg/cm^2; (from hydrogel HL-E, 24 h) 15.61 ± 2.42^a µg/cm^2; (from hydrogel HS-E, 24 h) 0.95 ± 0.15^b µg/cm^2. Moreover, the “D·10^4, diffusion coefficient” value (from hydrogel HL-E) was 2.68 ± 0.19 cm^2/h. Further, the “JSS, steady-state flux” value (from hydrogel HL-E) is 0.54 ± 0.03 µg/cm^2·h. In addition, the “LT, lag time” value (from hydrogel HL-E) is 1.55 ± 0.13 h. In addition, the “Q%24h, percentage of applied dose” value runs as follows: (from hydrogel HL-E) 4.77 ± 0.29%; (from hydrogel HL-E, listed as vanillic acid) 4.77%; (from hydrogel HS-E) 3.28 ± 0.52%.
